We go through 2 molecules from patent US20090130121A1, “Synthetic Peptide Copolymers for Treatment and Prevention of Cardiovascular Disorders” (Yeda Research and Development Co., Ltd., priority 2005, published 2009).

The nature of series [1]: Survival and body weight of C57BL/J6 mice on atherogenic diet, daily SC treatment. The format is in vivo. To be noted: Group B, GA 0.5 mg/0.2 ml SC daily. The text has this: (§1) Fourteen-month-old male C57BL/J6 mice (Harlan) with an average body weight of 19 g were randomly divided into three groups (five animals in each group). The groups entered a two-week acclimatization period. Groups A, which served as positive control and B, which served as the treated group, received a high fat atherogenic diet containing 1.25 % cholesterol, 0.5% sodium cholate and 15% fat (Harlan Laboratories, Teklad Premier Laboratory Diets, Madison, Wis., USA TD 88051). Group C served as negative control and was maintained on a normal mouse chow (Altromin, Standard Diet). The chow was supplied considering that the average intake of food for each animal is about 5 g/day (Walker et al., 1999, Arterioscler Thromb Vasc Biol. 19, 2673-2679). Replenishment of food and autoclaved water was performed every other day. All the animals were weighed weekly during the study. The mice were maintained on a 12-hour light/dark cycle in ventilated cages and temperature-controlled environment, in accordance with the standard animal care requirements of the Weizmann Institute of Science.
Following acclimatization, the animals in groups A (positive control) and C (negative control) received 0.2 ml of PBS injected daily subcutaneously (SC). The animals in group B (treated) received SC daily injections of glatiramer acetate (GA) (COPAXONE®, Teva Pharmaceutical Industries Ltd) in PBS (0.5 mg/0.2 ml). After 8 weeks all the mice were bled retro-orbitally and humanely sacrificed by cervical dislocation. The hearts and ascending aorta were removed from the animals, rinsed with Dulbecco's PBS (Life Technologies) and used for the evaluation of fatty streak formation.
(§2) ANOVA single factor test was used for the comparison of the body weights of the C57BL/J6 mice. Since no fatty streaks were detected in the negative control group of the C57BL/J6 mice (Group C), only two groups (A and B) participated in the statistical analysis of the results obtained in the quantization of aortic fatty streak area. The C57BL/J6 data were analyzed using Student's t-test: two samples assuming unequal variance. […]

Series [2] deals with C57BL/J6 mice maintained on an atherogenic diet. As to the kind of experiment: Atherosclerotic fatty streak area (oil red O) in aorta of C57BL/J6 mice on atherogenic diet. The format is in vivo.
Excerpt: as §1, with “Science. […]” for “Science.”
Histological evaluations of aortic fatty streak formation were performed according to the method of Paigen et al. with some modifications (Paigen et al., 1987. Atherosclerosis. 68:231-240). […] The fatty streak area stained with oil red O was objectively determined using a computer microscopy planimetry system (Nikon Micro & Macro system eclipse E800; Nikon digital camera DXM 1200 CCD; Nikon ×20/0.75 lens magnification) and Image-Pro Plus image analyses software for Windows XP. The total stained area (calculated for all 20 slices of each animal) was averaged per section for each animal. […]
as §2

Series [3] can be described thus: Body weight gain and plasma lipids in apoE-/- mice. The format is in vivo. Particulars: high and low doses, subcutaneously or orally, daily 8 weeks. The method, then: (§3) apoE-/- (backcrossed 10 times to C57BL/6J) mice were obtained from the Jackson Laboratory and were maintained under specific pathogen-free conditions and fed a normal chow diet. All experimental procedures were performed with approval from the Animal Care Committee of the Weizmann Institute of Science.
(§4) Eight-month-old apoE-/- mice (101 mice) were divided into 7 groups, […] (except day 0 group; n=11). Control group-time 0 (group 1) was sacrificed before treatment in order to measure the atherosclerotic lesion area prior to the treatments. Treatments were performed daily for a period of 8 weeks. Control group (group II) was orally administrated with PBS (0.2 ml). Control group III was injected subcutaneously (SC) with PBS (0.2 ml). Group IV was orally treated with GA in PBS (5.0 μg/0.2 ml); Groups V was orally treated with GA in PBS (250 μg/0.2 ml). Group VI was injected subcutaneously (SC) with GA in PBS (0.5 mg/0.2 ml). Group VII was injected subcutaneously (SC) with GA in PBS (2.0 mg/0.2 ml).
The whole blood samples were centrifuged for plasma separation and the plasma samples of each group were pooled. Total Plasma cholesterol as well as low and high density lipoprotein cholesterol (LDL and HDL, respectively) concentrations were measured in each group using Konelab 30i autoanalyser (Kone Instruments, Espoo, Finland).

Series [4] has as its system apoE-/- mice. As to the kind of experiment: Atherosclerotic lesion progression in the aortic sinus of apoE-/- mice. The format is in vivo. To be noted: daily 8 weeks. The procedure: as §3
as §4, with “Group IV was orally treated with GA in PBS (5.0 μg/0.2 ml); Groups V was orally treated with GA in PBS (250 μg/0.2 ml).” left out
Histological evaluations of aortic fatty streak formation were performed according to the method of Paigen et al. with some modifications (Paigen et al., 1987. Atherosclerosis. 68:231-240). Briefly, the apical two thirds of the myocardium were removed and the basal part was snap-frozen in OCT (Sakura Tissue-Tek) using Isopentan cooled in liquid nitrogen. The frozen tissue blocks were placed on a cryostat, and 10-μm serial slices of the ascending aorta were collected on charge-coated Superfrost glass slides until it became possible to locate the most cranial portion of the aortic sinus by examining unstained slices. Once this slice was identified, 40 slices covering 400 μm of the ascending aorta were collected. Every second slice of the 40 collected was stained with oil red O (Riedel de Haen), counterstained with hematoxylin (Merck) stains and used for further evaluation. The fatty streak area stained with oil red O was objectively determined using a computer microscopy planimetry system (Nikon Micro & Macro system eclipse E800; Nikon digital camera DXM 1200 CCD; Nikon ×20/0.75 lens magnification) and Image-Pro Plus image analyses software for Windows XP. The total stained area (calculated for all 20 slices of each animal) was averaged per section for each animal. Thereafter, the area per slice was averaged for each group of animals and presented in μm^2.
Student's t-test was used for the comparison of the lesion progression in the aortic sinus of the treated and control groups of the apoE-/- mice.

In series [5] the test system is apoE-/- mice. The series can be described thus: Aortic atherosclerotic lesion area in apoE-/- mice. It counts as in vivo. The procedure: as §3, §4
Aortic atherosclerotic areas were measured in control and treated mice of the following groups: I (time 0); III (S.C. PBS); V (Oral GA, 250 μg); and VII (S.C. GA, 2.0 mg).

For series [6] the following is noted: several clinical trials; mostly mild reactions at the injection site; cited from earlier work.
The test system of series [7] is apolipoprotein E-deficient mice. Particulars: 12 week treatment; cited from earlier work.

For glatiramer acetate [GA], the “average body weight ten weeks following the initiation of the study” value in series [1] (atherogenic diet) came to 24.20 ± 0.94 g. Moreover, in series [1] (atherogenic diet), the “weight gained during the 10 weeks of the study” value turned out to be 5.24 ± 1.40 g. Also, the “animals that reached the end of the study” value in series [1] (one animal found dead five weeks into the study) is listed as “Four out of five”. The “animals with no fatty streaks in the analysed aortic section (20 slices)” value in series [2] (Group B, GA 0.5 mg SC daily 8 weeks, animals that reached the end of the study) is recorded as “two out of four”. The “reduction in the fatty streak area compared to the untreated mice” value in series [2] (calculated for all four mice in Group B) is given as 4 fold. In series [2] (the two GA-treated mice that had fatty streaks, p=0.014), the “average area stained with oil red O relative to positive control Group A” value turned out to be 40%. The “effect on body weight gain” value in series [3] is recorded as “did not affect”. The “inhibition of the progression of lesion area in the aortic sinus with respect to control” value in series [4] (high dose S.C. (2.0 mg)) is 44.4%; in series [4] (high dose orally (250 μg)), 37.7%. For the same molecule, the “effect on lesion progression in the aortic sinus” value in series [4] (low dose S.C. (500 μg)) and in series [4] (low dose orally (50 μg)) was “did not effect” throughout. For the same molecule, the “change in aortic lesion area compared to time 0” value in series [5] (Oral GA 250 μg, group V, P<0.05) was “significance increase”. The “inhibition of aortic lesion area progression compared to control group III” value in series [5] (high dose 2.0 mg S.C., group VII, t-test P=0.009) is 52%. The “tolerability in clinical trials” value in series [6] is recorded as “well tolerated with only minor side reactions”.
As to `CC(=O)CCCCn1c(=O)c2c(ncn2C)n(C)c1=O` [PTX, pentoxifylline], the “decrease in the size of atherosclerotic lesions” value in series [7] is 60%.
